Laboratory results from patent US10273248B2, “Glucose uptake inhibitors” (Kadmon Corporation LLC, priority 2015, dated 2019).
Structures can show the parent of a compound that is named as a salt.

Test system: glycolysis in HT1080 cells
Experiment: Glycolysis assay: oligomycin plus compound, cellular ATP by Cell Titer Glo
Format: cell-based
Settings: Homo sapiens, HT-1080, 1 h, 10 μM oligomycin, one hour, class symbols
Procedure, shortened: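 Confluent HT1080 cells treated 1 h with compound plus 10 μM oligomycin to block mitochondrial ATP, so remaining ATP reflects glycolysis. Cellular ATP read by Cell Titer-Glo luminescence; IC50 derived from dose-response curves.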

SMILES	IC50 [nM]
CCN1CCc2nc(-c3cccc(OCC(=O)NC4CCCC4)c3)nc(Nc3ccc(-c4cn[nH]c4)cc3)c2C1 [Example 125, 2-(3-(4-((4-(1H-pyrazol-4-yl)phenyl)amino)-6-ethyl-5,6,7,8-tetrahydropyrido[4,3-d]pyrimidin-2-yl)phenoxy)-N-cyclopentylacetamide]	101 to 250
COCCOc1cccc(-c2nc3c(c(Nc4ccc(-c5cn[nH]c5)cc4)n2)COCC3)c1 [Example 127, N-(4-(1H-pyrazol-4-yl)phenyl)-2-(3-(2-methoxyethoxy)phenyl)-7,8-dihydro-5H-pyrano[4,3-d]pyrimidin-4-amine]	> 1000
CCC(C)(C)NC(=O)COc1cccc(-c2nc3c(c(Nc4ccc(-c5cn[nH]c5)cc4)n2)CNCC3)c1 [Example 128, 2-(3-(4-((4-(1H-pyrazol-4-yl)phenyl)amino)-5,6,7,8-tetrahydropyrido[4,3-d]pyrimidin-2-yl)phenoxy)-N-(tert-pentyl)acetamide]	10 to 100
CCN1CCc2nc(-c3cccc(OCC(=O)NC(C)(C)CC)c3)nc(Nc3ccc(-c4cn[nH]c4)cc3)c2C1 [Example 130, 2-(3-(4-((4-(1H-pyrazol-4-yl)phenyl)amino)-6-ethyl-5,6,7,8-tetrahydropyrido[4,3-d]pyrimidin-2-yl)phenoxy)-N-(tert-pentyl)acetamide]	10 to 100
CCC(C)(C)NC(=O)COc1cccc(-c2nc3c(c(Nc4ccc(-c5cn[nH]c5)cc4)n2)CN(C(C)C)CC3)c1 [Example 131, 2-(3-(4-((4-(1H-pyrazol-4-yl)phenyl)amino)-6-isopropyl-5,6,7,8-tetrahydropyrido[4,3-d]pyrimidin-2-yl)phenoxy)-N-(tert-pentyl)acetamide]	101 to 250
CCC(=O)N1CCc2nc(-c3cccc(OCC(=O)NC(C)(C)CC)c3)nc(Nc3ccc(-c4cn[nH]c4)cc3)c2C1 [Example 132, 2-(3-(4-((4-(1H-pyrazol-4-yl)phenyl)amino)-6-propionyl-5,6,7,8-tetrahydropyrido[4,3-d]pyrimidin-2-yl)phenoxy)-N-(tert-pentyl)acetamide]	10 to 100
CC(C)NC(=O)COc1cccc(-c2nc(Nc3ccc(-c4cn[nH]c4)cc3)c3cnccc3n2)c1 [Example 134, 2-(3-(4-((4-(1H-pyrazol-4-yl)phenyl)amino)pyrido[4,3-d]pyrimidin-2-yl)phenoxy)-N-isopropylacetamide]	10 to 100
CC(C)(C)NC(=O)COc1cccc(-c2nc(Nc3ccc(-c4cn[nH]c4)cc3)c3cnccc3n2)c1 [Example 135, 2-(3-(4-((4-(1H-pyrazol-4-yl)phenyl)amino)pyrido[4,3-d]pyrimidin-2-yl)phenoxy)-N-(tert-butyl)acetamide]	10 to 100
CC(C)(C)NC(=O)COc1cccc(-c2nc(Nc3ccc(-c4cn[nH]c4)cc3)c3ccncc3n2)c1 [Example 136, 2-(3-(4-((4-(1H-pyrazol-4-yl)phenyl)amino)pyrido[3,4-d]pyrimidin-2-yl)phenoxy)-N-(tert-butyl)acetamide]	10 to 100
CCC(CC)NC(=O)COc1cccc(-c2nc(Nc3ccc(-c4cn[nH]c4)cc3)c3ccncc3n2)c1 [Example 137, 2-(3-(4-((4-(1H-pyrazol-4-yl)phenyl)amino)pyrido[3,4-d]pyrimidin-2-yl)phenoxy)-N-(pentan-3-yl)acetamide dihydrochloride]	10 to 100
O=C(COc1cccc(-c2nc(Nc3ccc(-c4cn[nH]c4)cc3)c3ccncc3n2)c1)NC1CCCCC1 [Example 138, 2-(3-(4-((4-(1H-pyrazol-4-yl)phenyl)amino)pyrido[3,4-d]pyrimidin-2-yl)phenoxy)-N-cyclohexylacetamide dihydrochloride]	10 to 100
NC(=O)COc1cccc(-c2nc(Nc3ccc(-c4cn[nH]c4)cc3)c3sccc3n2)c1 [Example 139, 2-(3-(4-((4-(1H-pyrazol-4-yl)phenyl)amino)thieno[3,2-d]pyrimidin-2-yl)phenoxy)acetamide]	> 1000
CC(=O)N1Cc2nc(-c3cccc(OCC(=O)NC(C)C)c3)nc(Nc3ccc(-c4cn[nH]c4)cc3)c2C1 [Example 140, 2-(3-(4-((4-(1H-pyrazol-4-yl)phenyl)amino)-6-acetyl-6,7-dihydro-5H-pyrrolo[3,4-d]pyrimidin-2-yl)phenoxy)-N-isopropylacetamide]	101 to 250
CCC(CC)NC(=O)COc1cccc(-c2nc3c(c(Nc4ccc(-c5cn[nH]c5)cc4)n2)CN(C(C)=O)C3)c1 [Example 141, 2-(3-(4-((4-(1H-pyrazol-4-yl)phenyl)amino)-6-acetyl-6,7-dihydro-5H-pyrrolo[3,4-d]pyrimidin-2-yl)phenoxy)-N-(pentan-3-yl)acetamide]	10 to 100
CC(=O)N1Cc2nc(-c3cccc(OCC(=O)NC(C)(C)C)c3)nc(Nc3ccc(-c4cn[nH]c4)cc3)c2C1 [Example 142, 2-(3-(4-((4-(1H-pyrazol-4-yl)phenyl)amino)-6-acetyl-6,7-dihydro-5H-pyrrolo[3,4-d]pyrimidin-2-yl)phenoxy)-N-(tert-butyl)acetamide]	10 to 100
CC(=O)N1Cc2nc(-c3cccc(OCC(=O)NC4CCCC4)c3)nc(Nc3ccc(-c4cn[nH]c4)cc3)c2C1 [Example 143, 2-(3-(4-((4-(1H-pyrazol-4-yl)phenyl)amino)-6-acetyl-6,7-dihydro-5H-pyrrolo[3,4-d]pyrimidin-2-yl)phenoxy)-N-cyclopentylacetamide]	10 to 100
CC(=O)N1CCc2nc(-c3cccc(OCC(=O)NC4CCCC4)c3)nc(Nc3ccc(-c4cn[nH]c4)cc3)c2C1 [Example 145, 2-(3-(4-((4-(1H-pyrazol-4-yl)phenyl)amino)-6-acetyl-5,6,7,8-tetrahydropyrido[4,3-d]pyrimidin-2-yl)phenoxy)-N-cyclopentylacetamide]	10 to 100
CC(=O)N1CCc2nc(-c3cccc(OCC(=O)NCC(C)C)c3)nc(Nc3ccc(-c4cn[nH]c4)cc3)c2C1 [Example 146, 2-(3-(4-((4-(1H-pyrazol-4-yl)phenyl)amino)-6-acetyl-5,6,7,8-tetrahydropyrido[4,3-d]pyrimidin-2-yl)phenoxy)-N-isobutylacetamide]	10 to 100
CC(=O)N1CCc2nc(-c3cccc(OCC(=O)NCC(C)(C)C)c3)nc(Nc3ccc(-c4cn[nH]c4)cc3)c2C1 [Example 147, 2-(3-(4-((4-(1H-pyrazol-4-yl)phenyl)amino)-6-acetyl-5,6,7,8-tetrahydropyrido[4,3-d]pyrimidin-2-yl)phenoxy)-N-neopentylacetamide]	10 to 100
CCC(C)(C)NC(=O)COc1cccc(-c2nc3c(c(Nc4ccc(-c5cn[nH]c5)cc4)n2)CN(C(C)=O)CC3)c1 [Example 148, 2-(3-(4-((4-(1H-pyrazol-4-yl)phenyl)amino)-6-acetyl-5,6,7,8-tetrahydropyrido[4,3-d]pyrimidin-2-yl)phenoxy)-N-(tert-pentyl)acetamide]	10 to 100
CC(C)NC(=O)COc1cccc(-c2nc3c(c(Nc4ccc(-c5cn[nH]c5)cc4)n2)CN(C(=O)C(C)C)CC3)c1 [Example 149, 2-(3-(4-((4-(1H-pyrazol-4-yl)phenyl)amino)-6-isobutyryl-5,6,7,8-tetrahydropyrido[4,3-d]pyrimidin-2-yl)phenoxy)-N-isopropylacetamide]	10 to 100
CC(C)C(=O)N1CCc2nc(-c3cccc(OCC(=O)NC(C)(C)C)c3)nc(Nc3ccc(-c4cn[nH]c4)cc3)c2C1 [Example 151, 2-(3-(4-((4-(1H-pyrazol-4-yl)phenyl)amino)-6-isobutyryl-5,6,7,8-tetrahydropyrido[4,3-d]pyrimidin-2-yl)phenoxy)-N-(tert-butyl)acetamide]	10 to 100
CC(C)C(=O)N1CCc2nc(-c3cccc(OCC(=O)NC4CCC4)c3)nc(Nc3ccc(-c4cn[nH]c4)cc3)c2C1 [Example 152, 2-(3-(4-((4-(1H-pyrazol-4-yl)phenyl)amino)-6-isobutyryl-5,6,7,8-tetrahydropyrido[4,3-d]pyrimidin-2-yl)phenoxy)-N-cyclobutylacetamide]	10 to 100
CCC(CC)NC(=O)COc1cccc(-c2nc3c(c(Nc4ccc(-c5cn[nH]c5)cc4)n2)CN(C(=O)C(C)C)CC3)c1 [Example 153, 2-(3-(4-((4-(1H-pyrazol-4-yl)phenyl)amino)-6-isobutyryl-5,6,7,8-tetrahydropyrido[4,3-d]pyrimidin-2-yl)phenoxy)-N-(pentan-3-yl)acetamide]	10 to 100
CC(C)CNC(=O)COc1cccc(-c2nc3c(c(Nc4ccc(-c5cn[nH]c5)cc4)n2)CN(C(=O)C(C)C)CC3)c1 [Example 154, 2-(3-(4-((4-(1H-pyrazol-4-yl)phenyl)amino)-6-isobutyryl-5,6,7,8-tetrahydropyrido[4,3-d]pyrimidin-2-yl)phenoxy)-N-isobutylacetamide]	10 to 100
CC(C)C(=O)N1CCc2nc(-c3cccc(OCC(=O)NCC(C)(C)C)c3)nc(Nc3ccc(-c4cn[nH]c4)cc3)c2C1 [Example 155, 2-(3-(4-((4-(1H-pyrazol-4-yl)phenyl)amino)-6-isobutyryl-5,6,7,8-tetrahydropyrido[4,3-d]pyrimidin-2-yl)phenoxy)-N-neopentylacetamide]	10 to 100
CCC(C)(C)NC(=O)COc1cccc(-c2nc3c(c(Nc4ccc(-c5cn[nH]c5)cc4)n2)CN(C(=O)C(C)C)CC3)c1 [Example 156, 2-(3-(4-((4-(1H-pyrazol-4-yl)phenyl)amino)-6-isobutyryl-5,6,7,8-tetrahydropyrido[4,3-d]pyrimidin-2-yl)phenoxy)-N-(tert-pentyl)acetamide]	10 to 100
O=C(COc1cccc(-c2nc3c(c(Nc4ccc(-c5cn[nH]c5)cc4)n2)CNCC3)c1)NC1CCC1 [Example 157, 2-(3-(4-((4-(1H-pyrazol-4-yl)phenyl)amino)-5,6,7,8-tetrahydropyrido[4,3-d]pyrimidin-2-yl)phenoxy)-N-cyclobutylacetamide]	101 to 250

Same assay, conditions: Homo sapiens, HT-1080, 1 h, 10 μM oligomycin, one hour, number printed instead of class

SMILES	IC50 [nM]
CC(C)C(=O)N1CCc2nc(-c3cccc(OCC(=O)NC4CCCC4)c3)nc(Nc3ccc(-c4cn[nH]c4)cc3)c2C1 [Example 150, 2-(3-(4-((4-(1H-pyrazol-4-yl)phenyl)amino)-6-isobutyryl-5,6,7,8-tetrahydropyrido[4,3-d]pyrimidin-2-yl)phenoxy)-N-cyclopentylacetamide]	28
